# Assay results as given in ChEMBL document CHEMBL1132382 (J Med Chem, 1999).
# Experiments:
# Carbonic anhydrase 4 = biological target: T1, Carbonic anhydrase 4 (Bos taurus, UniProt Q95323)
# T1 sequence (Q95323 whole entry): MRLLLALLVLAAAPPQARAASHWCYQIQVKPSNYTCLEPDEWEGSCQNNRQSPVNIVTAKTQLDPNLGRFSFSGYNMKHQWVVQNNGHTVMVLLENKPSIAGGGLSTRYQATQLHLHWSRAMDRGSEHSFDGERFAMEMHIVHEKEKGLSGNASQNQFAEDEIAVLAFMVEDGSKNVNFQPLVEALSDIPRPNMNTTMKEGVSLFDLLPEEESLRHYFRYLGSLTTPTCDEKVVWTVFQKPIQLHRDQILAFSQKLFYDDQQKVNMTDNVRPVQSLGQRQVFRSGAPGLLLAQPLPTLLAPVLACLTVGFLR
# Description: Inhibitory activity against bovine carbonic anhydrase IV (CA4), isolated from bovine lung microsomes
# Carbonic anhydrase 1 = Carbonic anhydrase 1 (Homo sapiens, UniProt P00915)
# Chain of Carbonic anhydrase 1 (P00915 whole entry): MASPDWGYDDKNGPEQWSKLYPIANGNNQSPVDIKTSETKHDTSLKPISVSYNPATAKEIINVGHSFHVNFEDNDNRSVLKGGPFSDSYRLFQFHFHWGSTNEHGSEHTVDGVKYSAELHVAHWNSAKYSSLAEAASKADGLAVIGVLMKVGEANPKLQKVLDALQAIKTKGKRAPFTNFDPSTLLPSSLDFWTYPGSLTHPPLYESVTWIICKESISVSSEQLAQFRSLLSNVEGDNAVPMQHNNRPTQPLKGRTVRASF
# Description: Inhibitory activity against human recombinant carbonic anhydrase I (CA1)
SMILES,Ki (Carbonic anhydrase 4) [µM],Ki (Carbonic anhydrase 1) [µM]
NCC(=O)NCC(=O)Nc1ccc2nc(S(N)(=O)=O)sc2c1,0.064,0.016
CNCC(=O)Nc1ccc(S(N)(=O)=O)cc1I,0.07,0.56
CN(CC(=O)NNc1ccc(S(N)(=O)=O)cc1)C(=N)N,0.245,20.8
Cn1nc(S(N)(=O)=O)s/c1=N\S(=O)(=O)c1ccc(NC(=O)CNC(=O)CN)cc1,,0.013
NCC(=O)Nc1ccc(S(N)(=O)=O)cc1Br,0.073,0.6
CNCC(=O)Nc1nnc(S(N)(=O)=O)s1,0.039,0.305
NCC(=O)NCC(=O)Nc1cccc(S(N)(=O)=O)c1,0.235,17
CN(CC(=O)NS(=O)(=O)c1ccc(CCO)cc1)C(=N)N,0.086,1
Cn1nc(S(N)(=O)=O)s/c1=N\S(=O)(=O)c1ccc(N)cc1,0.0008,0.001
NCC(=O)Nc1ccc(S(N)(=O)=O)cc1F,0.046,0.54
NCC(=O)Nc1nccc(Nc2ccc(S(N)(=O)=O)cc2)n1,0.075,0.061
NCC(=O)NCC(=O)Nc1ccc(S(=O)(=O)Nc2ccc(S(N)(=O)=O)cc2)cc1,0.066,0.054
NCC(=O)NCC(=O)Nc1nccc(Nc2ccc(S(N)(=O)=O)cc2)n1,0.069,0.06
CNCC(=O)NS(=O)(=O)c1nc2ccc(O)cc2s1,0.03,0.011
Cn1nc(S(N)(=O)=O)s/c1=N/C(=O)CNC(=O)CN,0.044,0.28
CNCC(=O)NCc1ccc(S(N)(=O)=O)cc1,0.074,0.965
Nc1ccc(S(=O)(=O)Nc2cccc(S(N)(=O)=O)c2)cc1,0.053,0.044
NCC(=O)NS(=O)(=O)c1ccc(CCO)cc1,0.155,1.7
Nc1ccc(S(=O)(=O)Nc2ccc(S(N)(=O)=O)cc2)cc1,0.05,
CNCC(=O)Nc1cccc(S(N)(=O)=O)c1,0.195,16.6
NCC(=O)Nc1c(S(N)(=O)=O)cc(S(N)(=O)=O)c(Cl)c1Cl,0.062,0.52
CN(CC(=O)NS(=O)(=O)c1ccc(CO)cc1)C(=N)N,0.089,1.2
CNCC(=O)Nc1ccccc1S(N)(=O)=O,0.205,20.3
CNCC(=O)Nc1ccc(S(N)(=O)=O)cc1Cl,0.062,0.51
CN(CC(=O)Nc1ccc(S(=O)(=O)/N=c2\sc(S(N)(=O)=O)nn2C)cc1)C(=N)N,,0.011

SMILES,Ki (Carbonic anhydrase 4) [µM],Ki (Carbonic anhydrase 1) [µM]
NCC(=O)NCC(=O)NNc1ccc(S(N)(=O)=O)cc1,0.3,25.2
NCC(=O)NCC(=O)NCCc1ccc(S(N)(=O)=O)cc1,0.07,0.8
CNCC(=O)Nc1ccc(S(N)(=O)=O)cc1F,0.046,0.5
NCC(=O)NCC(=O)NCCC(=O)Nc1nnc(S(N)(=O)=O)s1,0.012,0.021
NCC(=O)NCC(=O)NS(=O)(=O)c1ccc(CO)cc1,0.15,1.5
NCC(=O)NCC(=O)Nc1ccc(S(N)(=O)=O)cc1Br,0.07,0.57
NCC(=O)Nc1ccc(S(N)(=O)=O)cc1I,0.074,0.61
CCN(C(=O)CN)C1CC(C)S(=O)(=O)c2sc(S(N)(=O)=O)cc21 (stereo not drawn),0.035,0.098
CN(CC(=O)Nc1ccc(S(N)(=O)=O)cc1Br)C(=N)N,0.062,0.525
NCC(=O)NCC(=O)NCc1ccc(S(N)(=O)=O)cc1,0.075,1.36
CN(CC(=O)NCCc1ccc(S(N)(=O)=O)cc1)C(=N)N,0.064,0.775
CN(CC(=O)Nc1ccc2nc(S(N)(=O)=O)sc2c1)C(=N)N,0.012,0.01
CN(CC(=O)Nc1nccc(Nc2ccc(S(N)(=O)=O)cc2)n1)C(=N)N,0.04,0.053
NCC(=O)NCC(=O)Nc1ccc(S(=O)(=O)Nc2cccc(S(N)(=O)=O)c2)cc1,0.06,0.055
NCC(=O)Nc1ccc(S(=O)(=O)Nc2ccc(S(N)(=O)=O)cc2)cc1,0.086,0.062
CNCC(=O)Nc1ccc(S(=O)(=O)Nc2cccc(S(N)(=O)=O)c2)cc1,0.061,0.051
CN(CC(=O)Nc1ccc(S(=O)(=O)Nc2nnc(S(N)(=O)=O)s2)cc1)C(=N)N,0.005,0.012
CN(CC(=O)Nc1ccc(S(N)(=O)=O)cc1)C(=N)N,0.14,14.6
CNCC(=O)NCCC(=O)Nc1nnc(S(N)(=O)=O)s1,0.009,0.021
Cn1nc(S(N)(=O)=O)s/c1=N\S(=O)(=O)c1ccc(NC(=O)CN)cc1,,0.015
CN(CC(=O)NCc1ccc(S(N)(=O)=O)cc1)C(=N)N,0.071,0.95
NCC(=O)NCc1ccc(S(N)(=O)=O)cc1,0.082,1.4
NCC(=O)NCC(=O)Nc1ccccc1S(N)(=O)=O,0.24,23.5
CN(CC(=O)Nc1cc(Cl)c(S(N)(=O)=O)cc1S(N)(=O)=O)C(=N)N,0.042,0.31
CN(CC(=O)Nc1ccccc1S(N)(=O)=O)C(=N)N,0.205,20.3

SMILES,Ki (Carbonic anhydrase 4) [µM],Ki (Carbonic anhydrase 1) [µM]
NCC(=O)NCC(=O)Nc1ccc(S(N)(=O)=O)cc1Cl,0.065,0.55
CNCC(=O)Nc1ccc2nc(S(N)(=O)=O)sc2c1,0.014,0.01
CNCC(=O)Nc1c(S(N)(=O)=O)cc(S(N)(=O)=O)c(Cl)c1Cl,0.055,0.52
Nc1nccc(Nc2ccc(S(N)(=O)=O)cc2)n1,0.154,
CN(CC(=O)NS(=O)(=O)c1nc2ccc(O)cc2s1)C(=N)N,0.015,0.011
NCC(=O)NS(=O)(=O)c1nc2ccc(O)cc2s1,0.069,0.016
NCC(=O)Nc1ccc(S(N)(=O)=O)cc1,0.175,
CNCC(=O)Nc1nccc(Nc2ccc(S(N)(=O)=O)cc2)n1,0.06,0.06
NCC(=O)Nc1ccccc1S(N)(=O)=O,0.245,25
CNCC(=O)Nc1ccc(S(N)(=O)=O)cc1,0.146,15
NCC(=O)Nc1cc(Cl)c(S(N)(=O)=O)cc1S(N)(=O)=O,0.06,0.36
CN(CC(=O)NS(=O)(=O)c1nc2ccc(OCCO)cc2s1)C(=N)N,0.011,0.009
NCC(=O)Nc1ccc2nc(S(N)(=O)=O)sc2c1,0.072,0.017
NCC(=O)NCCc1ccc(S(N)(=O)=O)cc1,0.076,0.85
CNCC(=O)NCCc1ccc(S(N)(=O)=O)cc1,0.07,0.82
CN(CC(=O)Nc1cccc(S(N)(=O)=O)c1)C(=N)N,0.177,16.2
CN(CC(=O)Nc1c(S(N)(=O)=O)cc(S(N)(=O)=O)c(Cl)c1Cl)C(=N)N,0.051,0.525
NCC(=O)Nc1ccc(S(=O)(=O)Nc2cccc(S(N)(=O)=O)c2)cc1,0.079,0.06
CN(CC(=O)Nc1ccc(S(N)(=O)=O)cc1Cl)C(=N)N,0.06,0.51
CN(CC(=O)Nc1ccc(S(N)(=O)=O)cc1I)C(=N)N,0.069,0.545
CNCC(=O)NNc1ccc(S(N)(=O)=O)cc1,0.28,22
NCC(=O)NCC(=O)Nc1ccc(S(N)(=O)=O)cc1F,0.045,0.54
CNCC(=O)NS(=O)(=O)c1ccc(CO)cc1,0.123,1.5
CN(CC(=O)Nc1ccc(S(=O)(=O)Nc2cccc(S(N)(=O)=O)c2)cc1)C(=N)N,0.057,0.045
CNCC(=O)Nc1ccc(S(=O)(=O)/N=c2\sc(S(N)(=O)=O)nn2C)cc1,,0.011
